Experimental data published in patent publication US20240391931A1 (Bristol-Myers Squibb Company, priority 2021, published 2024).
pEC50, pIC50: −log10 of the molar value.

Legend:
EGFR = EGFR (Homo sapiens, UniProt P00533); experiment: EGFR signaling (pEGFR Tyr1068/total EGFR MSD) in A431 cells; assay type: cell-based; design: endogenous in cells; host or cells: A431, N87; details: for pEC50: A431 cells, read-out: A431 pEGFR EC50; for Selectivity A431 EC50/BT474 EC50: ratio A431 pEGFR EC50 to BT474 pHER2 EC50; for Selectivity A431 EC50/HEKYVMA EC50: ratio A431 pEGFR EC50 to HEK YVMA pHER2 EC50
Description: In addition to the engineered cell lines, the following cell lines were used: BT474 (human breast carcinoma), N87 (human gastric carcinoma), NCI-H1781 (human lung adenocarcinoma), and A431 (human epidermoid carcinoma); all cell lines were obtained from the American Type Culture Collection (ATCC, Manassas, VA). NCI-H1781 were grown in complete RPMI 1640 (Life Technologies, Carlsbad, CA) supplemented with 15% fetal bovine serum (FBS, Life Technologies, Carlsbad, CA) and 1% Penicillin-Streptomycin (P/S, Life Technologies, Carlsbad, CA). N87 cells were grown in complete RPMI 1640 supplemented with 10% FBS and 1% P/S. BT474 and A431 cells were grown in DMEM (Life Technologies, Carlsbad, CA) supplemented with 10% FBS and 1% P/S. All cells were maintained and propagated in a humidified 5% CO2 incubator at 37° C.
A431 Cells were plated in 96-well tissue-culture treated plates in full media for 6 h, then starved with media containing 0.1% FBS for overnight. Media was replaced with low serum media (1% FBS) containing compound at 10, 3.3, 1.1, 0.37, 0.12, 0.041, 0.014, 0.005 μM or DMSO control (0.1%). Cells were incubated for 1.5 hr, then stimulated with 100 ng/mL human EGF (PeproTech, Rocky Hill, NJ) for 10 minutes. Cells were washed with cold PBS, and lysed for 30 min on ice in complete MSD lysis buffer (prepared as described in HER2 Signaling Method); lysates were stored at −70° C. until further analysis. EGFR signaling was evaluated using phospho (Tyr 1068)/total EGFR whole cell lysate kit (Meso-Scale Discovery, Gaithersburg, MD). The phospho EGFR signal was normalized to total EGFR for each sample; results are reported as % DMSO control. The normalized data was fitted using a sigmoidal curve analysis program (Graph Pad Prism version 6) with variable Hill slope to determine EC50 values. The results are provided in Table 4, under column titled “A431-pEGFR EC50”.

HER2YVMA = HER2YVMA (Homo sapiens, UniProt P04626, INS775YVMA); experiment: Enzymatic assay HER2YVMA (method b); assay type: biochemical; design: purchased Viva biotech, Shanghai, China custom purification; details: [HER2YVMA]=5 nM, [ATP]=25 μM, [Peptide 22]=1 μM
Description: A 2× stock solution of HER2 WT (ERBB2 0108-0000-1; ProQinase, Freiburg, Germany) corresponding to method a, was prepared as described below. Alternatively, a 2× stock solution of HER2YVMA (custom purification; Viva biotech, Shanghai, China) corresponding to method b, was prepared as described below. For method c, a 2× stock of EGFR (ERBB1 PR7295B, Thermo Fisher, Carlsbad, CA) was prepared as described below. All 2× solutions were prepared in buffer containing 50 mM HEPES, pH 7.5, 10 mM MnCl2, MgCl2, 0.005% Tween 20, 1 mM TCEP. 25 ul of 2× enzyme solution was added to a Seahorse low volume 384-well polypropylene assay plate (201288-100, Seahorse Bioscience, Chicopee, MA) containing 1 μl of compound serially diluted in 50% DMSO. To initiate the reaction, 25 μl of solution containing 2× final concentration of ATP and ProfilerPro Peptide 22 (760366, Perkin Elmer Hopkinton, MA) was added to each well. The reactions were separated on an LC3000 (Caliper Life Sciences) or a LabChip EZReader (Perkin Elmer) in kinetic mode.
At the conclusion of each assay, the data were exported from the instrument as a .rda file (LC3000) and processed in proprietary software, EZReviewer, which determines the percent of substrate converted to product within a given cycle as (P/P+S)*100 by measuring the amplitude of substrate and product peaks. Cycle time varied with amount of compounds tested between 8 and 12 cycles. Initial velocity (0-3600 s) from each reaction was determined from the slope of a plot of percent conversion at each cycle versus time (seconds). Percent inhibition was determined by dividing the slope of each reaction by the uninhibited control using 100*(1-(x/uninhibited control)). IC50 estimates were obtained by plotting the concentration of inhibitor versus percent inhibition in GraphPad Prism (GraphPad Software, San Diego, CA) using log[inhibitor] versus Response (Variable Slope Model); Y=Min+((Max-Min)/(1+((IC50/x)^Hillslope)))
• a) [HER2 WT]=12.5 nM, [ATP]=25 μM, [Peptide 22]=1 μM (ATP KMapp˜25 μM) • b) [HER2YVMA]=5 nM, [ATP]=25 μM, [Peptide 22]=1 μM (ATP KMapp˜15 μM) • c) [EGFR WT]=2 nM, [ATP]=1 mM, [Peptide 22]=1 μM (ATP KMapp˜25 μM)

HER2YVMA, sequence (P04626 with tags, fused parts or gaps INS775YVMA): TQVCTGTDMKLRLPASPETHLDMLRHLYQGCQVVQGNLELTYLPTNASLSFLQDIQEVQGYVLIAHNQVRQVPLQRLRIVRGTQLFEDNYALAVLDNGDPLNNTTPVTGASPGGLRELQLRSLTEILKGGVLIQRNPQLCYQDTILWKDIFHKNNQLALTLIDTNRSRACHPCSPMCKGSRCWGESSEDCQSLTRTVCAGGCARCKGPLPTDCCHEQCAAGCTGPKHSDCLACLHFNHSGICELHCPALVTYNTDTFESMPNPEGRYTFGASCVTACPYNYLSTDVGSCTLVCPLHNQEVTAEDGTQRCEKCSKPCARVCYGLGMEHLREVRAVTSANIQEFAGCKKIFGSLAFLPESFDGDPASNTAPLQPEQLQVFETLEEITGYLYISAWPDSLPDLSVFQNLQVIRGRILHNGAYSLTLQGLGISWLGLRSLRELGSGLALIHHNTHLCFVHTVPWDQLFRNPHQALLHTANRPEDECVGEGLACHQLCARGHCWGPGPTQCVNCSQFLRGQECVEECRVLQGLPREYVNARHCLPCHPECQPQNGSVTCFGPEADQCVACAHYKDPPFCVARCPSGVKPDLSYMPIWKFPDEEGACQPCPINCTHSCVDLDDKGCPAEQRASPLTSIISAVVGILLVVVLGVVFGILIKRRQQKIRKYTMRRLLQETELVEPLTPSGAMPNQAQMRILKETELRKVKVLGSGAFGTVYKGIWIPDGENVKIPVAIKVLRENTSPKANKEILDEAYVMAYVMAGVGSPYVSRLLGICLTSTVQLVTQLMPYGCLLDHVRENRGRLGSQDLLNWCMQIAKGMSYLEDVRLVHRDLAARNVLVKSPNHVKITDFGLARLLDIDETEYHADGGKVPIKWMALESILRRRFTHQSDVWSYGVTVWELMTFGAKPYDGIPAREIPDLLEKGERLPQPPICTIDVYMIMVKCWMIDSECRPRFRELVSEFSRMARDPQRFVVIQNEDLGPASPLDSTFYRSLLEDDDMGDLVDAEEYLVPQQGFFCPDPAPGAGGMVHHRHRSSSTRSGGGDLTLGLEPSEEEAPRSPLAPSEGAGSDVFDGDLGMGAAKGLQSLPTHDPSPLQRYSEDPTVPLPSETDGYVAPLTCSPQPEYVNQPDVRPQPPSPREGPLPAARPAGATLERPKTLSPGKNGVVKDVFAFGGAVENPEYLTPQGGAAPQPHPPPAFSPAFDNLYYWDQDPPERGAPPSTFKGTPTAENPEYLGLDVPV
EGFR, sequence (P00533 25-1210): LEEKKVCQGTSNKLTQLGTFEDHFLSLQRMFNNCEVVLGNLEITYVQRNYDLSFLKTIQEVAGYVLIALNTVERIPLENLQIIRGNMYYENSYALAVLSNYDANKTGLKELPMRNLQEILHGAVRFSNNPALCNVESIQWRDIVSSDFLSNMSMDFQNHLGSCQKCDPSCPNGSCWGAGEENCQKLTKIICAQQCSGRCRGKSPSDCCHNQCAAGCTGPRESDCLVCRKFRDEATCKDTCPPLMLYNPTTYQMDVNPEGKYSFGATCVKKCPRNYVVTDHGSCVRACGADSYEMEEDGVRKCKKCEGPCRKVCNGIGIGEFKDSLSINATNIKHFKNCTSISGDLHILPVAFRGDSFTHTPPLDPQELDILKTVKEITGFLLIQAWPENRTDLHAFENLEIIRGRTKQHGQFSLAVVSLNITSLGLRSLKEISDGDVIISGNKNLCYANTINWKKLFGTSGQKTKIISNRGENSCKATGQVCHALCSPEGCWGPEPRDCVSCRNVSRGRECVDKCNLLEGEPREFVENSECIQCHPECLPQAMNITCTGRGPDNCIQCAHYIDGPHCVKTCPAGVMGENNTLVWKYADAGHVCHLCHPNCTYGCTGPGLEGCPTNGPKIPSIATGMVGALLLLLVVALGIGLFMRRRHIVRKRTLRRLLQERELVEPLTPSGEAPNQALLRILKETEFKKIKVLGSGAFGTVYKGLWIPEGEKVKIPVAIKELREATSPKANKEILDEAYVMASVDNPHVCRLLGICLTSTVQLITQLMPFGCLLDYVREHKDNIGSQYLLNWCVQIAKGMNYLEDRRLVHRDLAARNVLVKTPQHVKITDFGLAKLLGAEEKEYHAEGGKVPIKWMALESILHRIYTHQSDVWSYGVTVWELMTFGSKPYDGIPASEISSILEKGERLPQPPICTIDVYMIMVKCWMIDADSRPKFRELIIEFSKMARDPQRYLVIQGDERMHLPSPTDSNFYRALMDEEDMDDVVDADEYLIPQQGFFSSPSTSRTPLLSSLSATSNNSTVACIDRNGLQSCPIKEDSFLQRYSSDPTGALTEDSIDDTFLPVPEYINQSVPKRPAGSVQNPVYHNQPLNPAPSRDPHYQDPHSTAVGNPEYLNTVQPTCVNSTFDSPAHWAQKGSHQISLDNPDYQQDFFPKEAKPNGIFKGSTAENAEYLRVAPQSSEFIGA

pEC50 (EGFR) | Selectivity A431 EC50/BT474 EC50 (EGFR) | Selectivity A431 EC50/HEKYVMA EC50 (EGFR) | pIC50 (HER2YVMA) | SMILES
> 7.00 | B (B: ≥ 20 and < 100) | E (E: >1 and < 5) | > 7.00 | Cc1ccc(Oc2ccc(Nc3ncnc4sc5c(c34)CCN(C(=O)/C=C/CN3CCC[C@H](CO)C3)C5)cc2C)cn1 [Compound 155]
6.00 to 7.00 | B (B: ≥ 20 and < 100) | C (C: ≥ 10 and < 20) | > 7.00 | Cc1ccc(Oc2ccc(Nc3ncnc4sc5c(c34)CCN(C(=O)/C=C/CN3CCC[C@H](n4cccn4)C3)C5)cc2C)cn1 [Compound 112]
5.00 to 6.00 | A (A: ≥100) | A (A: ≥100) | > 7.00 | Cc1cc(Nc2ncnc3sc4c(c23)CN(C(=O)/C=C/CN(C)C)C4)ccc1Oc1ccn2ncnc2c1 [Compound 130, (E)-1-(4-((4-([1,2,4]Triazolo[1,5-a]pyridin-7-yloxy)-3-methylphenyl)amino)-5H-pyrrolo[3′,4′:4,5]thieno[2,3-d]pyrimidin-6(7H)-yl)-4-(dimethylamino)but-2-en-1-one]
> 7.00 | B (B: ≥ 20 and < 100) | D (D: ≥ 5 and < 10) | > 7.00 | Cc1ccc(Oc2ccc(Nc3ncnc4sc5c(c34)C(C)N(C(=O)C=CCN(C)C)C5)cc2C)cn1 (single isomer, unassigned) [Compound 147]
> 7.00 | B (B: ≥ 20 and < 100) | B (B: ≥ 20 and < 100) | > 7.00 | C#CCOCCN(C)C/C=C/C(=O)N1CCc2c(sc3ncnc(Nc4ccc(Oc5ccc(C)nc5)c(C)c4)c23)C1 [Compound 139]
6.00 to 7.00 | C (C: ≥ 10 and < 20) | C (C: ≥ 10 and < 20) | > 7.00 | COc1ccc(Oc2ccc(Nc3ncnc4sc5c(c34)C(C)CN(C(=O)/C=C/CN(C)C)C5)cc2C)cn1 (centres unmarked) [Compound 152, (E)-4-(dimethylamino)-1-(4-((4-((6-methoxypyridin-3-yl)oxy)-3-methylphenyl)amino)-5-methyl-5,8-dihydropyrido[4′,3′:4,5]thieno[2,3-d]pyrimidin-7(6H)-yl)but-2-en-1-one]
6.00 to 7.00 | A (A: ≥100) | B (B: ≥ 20 and < 100) | > 7.00 | Cc1ccc(Oc2ccc(Nc3ncnc4sc5c(c34)CCN(C(=O)/C=C/CN3CC4CC4(CO)C3)C5)cc2C)cn1 (centres unmarked) [Compound 118]
6.00 to 7.00 | B (B: ≥ 20 and < 100) | A (A: ≥100) | > 7.00 | Cc1cc(Nc2ncnc3sc4c(c23)CCN(C(=O)/C=C/CN(C)C)C4)ccc1Oc1ccn2ncnc2c1 [Compound 138, (E)-1-(4-((4-([1,2,4]triazolo[1,5-a]pyridin-7-yloxy)-3-methylphenyl)amino)-5,8-dihydropyrido[4′,3′:4,5]thieno[2,3-d]pyrimidin-7(6H)-yl)-4-(dimethylamino)but-2-en-1-one]
6.00 to 7.00 | B (B: ≥ 20 and < 100) | C (C: ≥ 10 and < 20) | > 7.00 | Cc1ccc(Oc2ccc(Nc3ncnc4sc5c(c34)CCN(C(=O)/C=C/CN3CC[C@H](CO)C3)C5)cc2C)cn1 [Compound 133]
6.00 to 7.00 | B (B: ≥ 20 and < 100) | B (B: ≥ 20 and < 100) | > 7.00 | O=C(/C=C/CN1CCOCC1)N1CCc2c(sc3ncnc(Nc4ccc(Oc5ccc6ncnn6c5)c(Cl)c4)c23)C1 [Compound 18]
6.00 to 7.00 | B (B: ≥ 20 and < 100) | C (C: ≥ 10 and < 20) | > 7.00 | Cc1ccc(Oc2ccc(Nc3ncnc4sc5c(c34)CN(C(=O)/C=C/CN(C)C)C5C)cc2C)cn1 (centres unmarked) [Compound 153, (E)-4-(dimethylamino)-1-(7-methyl-4-((3-methyl-4-((6-methylpyridin-3-yl)oxy)phenyl)amino)-5,7-dihydro-6H-pyrrolo[3′,4′:4,5]thieno[2,3-d]pyrimidin-6-yl)but-2-en-1-one]

SMILES | pEC50 (EGFR) | Selectivity A431 EC50/BT474 EC50 (EGFR) | Selectivity A431 EC50/HEKYVMA EC50 (EGFR) | pIC50 (HER2YVMA)
Cc1cc(Nc2ncnc3sc4c(c23)CCN(C(=O)/C=C/CN(C)C)C4)ccc1Oc1ccc2nccn2c1 [Compound 109, (E)-4-(dimethylamino)-1-(4-((4-(imidazo[1,2-a]pyridin-6-yloxy)-3-methylphenyl)amino)-5,6-dihydropyrido[4′,3′:4,5]thieno[2,3-d]pyrimidin-7(8H)-yl)but-2-en-1-one] | 6.00 to 7.00 | D (D: ≥ 5 and < 10) | E (E: >1 and < 5) | > 7.00
Cc1nc2cc(Oc3ccc(Nc4ncnc5sc6c(c45)CCN(C(=O)/C=C/CN(C)C)C6)cc3C)ccn2n1 [Compound 127, (E)-4-(dimethylamino)-1-(4-((3-methyl-4-((2-methyl-[1,2,4]triazolo[1,5-a]pyridin-7-yl)oxy)phenyl)amino)-5,6-dihydropyrido[4′,3′:4,5]thieno[2,3-d]pyrimidin-7(8H)-yl)but-2-en-1-one] | 5.00 to 6.00 | A (A: ≥100) | B (B: ≥ 20 and < 100) | > 7.00
Cc1cc(Nc2ncnc3sc4c(c23)CCN(C(=O)/C=C/CN(C)C)C4)ccc1Oc1ccc(N(C)C)nc1 [Compound 158, (E)-4-(dimethylamino)-1-(4-((4-((6-(dimethylamino)pyridin-3-yl)oxy)-3-methylphenyl)amino)-5,8-dihydropyrido[4′,3′:4,5]thieno[2,3-d]pyrimidin-7(6H)-yl)but-2-en-1-one] | 6.00 to 7.00 | B (B: ≥ 20 and < 100) | B (B: ≥ 20 and < 100) | > 7.00
C=CC(=O)N1Cc2sc3ncnc(Nc4ccc(Oc5ccc(C)nc5)c(C)c4)c3c2C(C)C1 (single isomer, unassigned) [Compound 146] | > 7.00 | C (C: ≥ 10 and < 20) | D (D: ≥ 5 and < 10) | > 7.00
C=CC(=O)N1Cc2sc3ncnc(Nc4ccc(Oc5ccc(C)nc5)c(C)c4)c3c2C(C)C1 (single isomer, unassigned) [Compound 145] | 6.00 to 7.00 | C (C: ≥ 10 and < 20) | E (E: >1 and < 5) | > 7.00
Cc1ccc(Oc2ccc(Nc3ncnc4sc5c(c34)CCN(C(=O)/C=C/CN3CC4CC(C3)O4)C5)cc2C)cn1 [Compound 15] | 6.00 to 7.00 | B (B: ≥ 20 and < 100) | B (B: ≥ 20 and < 100) | 6.00 to 7.00
